Paper PMC3046873 (ACS medicinal chemistry letters, 2011)
pEC50: −log10 of the molar value.

Legend:
[1] = background statement, no reference given, cited from earlier work
Plasmodium falciparum [2] = details: cited from earlier work
Plasmodium falciparum [3] = experiment: Activity against the malaria parasite Plasmodium falciparum; details: fold versus 1

SMILES | oral availability [1] | half-life in plasma ([1]; plasma) | pEC50 (Plasmodium falciparum [2]) | increased activity against Plasmodium falciparum relative to 1 (Plasmodium falciparum [3])
O=CN(O)CCCP(=O)(O)O [Compound 1, Fosmidomycin] | poor | ~ 1 h |  | 
O=CN(O)CCC(c1ccc(Cl)c(Cl)c1)P(=O)(O)O (stereo not shown) [Compound 8] |  |  | 7.05 | > 10 ×
